Source: patent US9695191B2, “Conformationally constrained, fully synthetic macrocyclic compounds” (POLYPHOR AG, priority 2009, dated 2017)
Where two headings read alike, the source gives them in different places.

Columns and labels:
[1] = amide bond
[2] = Metabolic stability, human microsomes; type: in vitro ADME; details: % of the initial 0 minutes value at 60 min, 10 μM, 37° C.
Description: (§1) Microsomes from a human 50 donor mixed gender pool and 1:1 mixtures of microsomes from CD-1 mouse single-gender pools are purchased from Celsis (Belgium). The enzymatic reaction is performed in a buffer containing an NADPH regeneration system and microsomes with the following end concentrations: 100 mM potassium phosphate buffer (all from Sigma), 1 mg/mL glucose-6-phosphate, 1 mg/mL β-nicotinamide adenine dinucleotide phosphate (NADP), 0.65 mg/mL magnesium chloride, 0.8 units/mL of glucose-6-phosphate dehydrogenase (prediluted with 5 mM citrate buffer), 10 μM compound and 1 mg/ml microsomal protein. Compounds are incubated at 37° C. in duplicates and samples are taken after 0, 20 and 60 minutes. After acetonitrile precipitation (2 volumes) and HPLC/MS/MS analysis metabolic turnover is expressed in % of the initial 0 minutes value and half life T½ (min) is calculated. Verapamil for human and propranolol for mouse are used as reference and are assayed with every experimental set. • F. P. Guengerich, Analysis and Characterization of Enzymes; in: Principles and Methods of Toxicology; A. W. Hayes (Ed.) Raven Press: New York, 1989, 777-813. • R. Singh et al., In vitro metabolism of a potent HIV-protease inhibitor (141W94) using rat, monkey and human liver S9, Rapid Commun. Mass Spectrom. 1996, 10, 1019-1026. 5. Results

[3] = Metabolic stability, CD-1 mouse microsomes; type: in vitro ADME; details: % of the initial 0 minutes value at 60 min, 10 μM, 37° C.
Description: as §1

[4] = human, 10 μM
Description: (§2) Example compounds were dissolved in DMSO/H2O 90:10 to a final concentration of 10 mM for plasma stability determination and metabolic stability determination.
(§3) Human plasma (3-5 donors, Blutspendedienst SRK, Basel) and CD-1 mouse plasma (mixed gender pool>50 animals, Innovative Research, CA, USA) are both sodium citrate stabilized. The assay is performed in triplicates at 10 μM compound concentration and 37° C. Samples are taken at 0, 15, 60, and 240 minutes and stopped by precipitation with 2 volumes of acetonitrile. The supernatant is collected, evaporated and reconstituted in a 5% acetonitrile solution to be analyzed by HPLC/MS/MS. The resulting peak area counts are expressed in percent of the 0 value and used to determine the endpoint stability in % and the half life T½ in minutes. In order to monitor assay integrity the degradation of propantheline is assayed with every experimental set

[5] = both, CD-1, mouse, 10 μM
Description: as §2, §3

Structure (SMILES)	Metabolic Stability 60 min hum [2]	Metabolic Stability 60 min mouse [3]	Plasma Stability 240 min hum [4]	Plasma Stability 240 min mouse [5]	further results
CN1C(=O)c2cc(F)ccc2OC[C@@H]2CN(C(=O)OC(C)(C)C)CCN2C(=O)CC[C@H]1C(=O)OCc1ccccc1	–	–	–	–	ring closure, yield of all isomers ([1]; from CN(C(=O)c1cc(F)ccc1OC[C@@H]1CN(C(=O)OC(C)(C)C)CCN1)[C@@H](CCC(=O)O)C(=O)OCc1ccccc1, T3P, CH2Cl2, 0.57 mM, 25.0 °C, 22.0 h): 77%
CN1C(=O)c2cc(F)ccc2OC[C@@H]2C[C@H](NC(=O)OCC[Si](C)(C)C)CN2C(=O)CC[C@H]1C(=O)OCc1ccccc1	–	–	–	–	ring closure, yield of all isomers ([1]; from CN(C(=O)c1cc(F)ccc1OC[C@@H]1C[C@H](NC(=O)OCC[Si](C)(C)C)CN1)[C@@H](CCC(=O)O)C(=O)OCc1ccccc1, T3P, CH2Cl2, 10.0 mM, 25.0 °C, […]): 61%
CN1CC(=O)N2C[C@@H](NC(=O)OC(C)(C)C)C[C@H]2COc2ccc(F)cc2C(=O)N(C)[C@H](C(=O)OCc2ccccc2)CCC1=O	–	–	–	–	ring closure, yield of all isomers ([1]; from CNCC(=O)N1C[C@@H](NC(=O)OC(C)(C)C)C[C@H]1COc1ccc(F)cc1C(=O)N(C)[C@@H](CCC(=O)O)C(=O)OCc1ccccc1, FDPP, DMF, 8.44 mM, 25.0 °C, 22.0 h): 94%
CN1CC(=O)N2C[C@@H](NC(=O)OCC[Si](C)(C)C)C[C@H]2COc2cccc3c2C[C@@](NC(=O)OC(C)(C)C)(CC3)C(=O)N(C)C[C@H](NC(=O)OCc2ccccc2)C1=O	–	–	–	–	ring closure, yield of all isomers ([1]; from CN(CC(=O)O)C(=O)[C@H](CN(C)C(=O)[C@]1(NC(=O)OC(C)(C)C)CCc2cccc(OC[C@@H]3C[C@H](NC(=O)OCC[Si](C)(C)C)CN3)c2C1)NC(=O)OCc1ccccc1, T3P, CH2Cl2, 10.0 mM, 2.0 h): 44%
CN1CC(=O)N2C[C@H](NC(=O)OC(C)(C)C)C[C@H]2COc2ccc(F)cc2C(=O)N(C)[C@H](C(=O)OCc2ccccc2)CCC1=O	–	–	–	–	ring closure, yield of all isomers ([1]; from CNCC(=O)N1C[C@H](NC(=O)OC(C)(C)C)C[C@H]1COc1ccc(F)cc1C(=O)N(C)[C@@H](CCC(=O)O)C(=O)OCc1ccccc1, T3P, CH2Cl2, 10.5 mM, 25.0 °C, 22.0 h): 87%
CN1CC(=O)N2C[C@H](NC(=O)OC(C)(C)C)C[C@H]2COc2ccc(cc2)C(=O)N(C)[C@H](C(=O)OCc2ccccc2)CCC1=O	–	–	–	–	ring closure, yield of all isomers ([1]; from CNCC(=O)N1C[C@H](NC(=O)OC(C)(C)C)C[C@H]1COc1ccc(C(=O)N(C)[C@@H](CCC(=O)O)C(=O)OCc2ccccc2)cc1, T3P, CH2Cl2, 1.05 mM, 3.0 h): 54%
CN1CC(=O)N2C[C@H](NC(=O)OC(C)(C)C)C[C@H]2CSc2cccc(c2)C(=O)N(C)[C@H](C(=O)OCc2ccccc2)CCC1=O	–	–	–	–	ring closure, yield of all isomers ([1]; from CNCC(=O)N1C[C@H](NC(=O)OC(C)(C)C)C[C@H]1CSc1cccc(C(=O)N(C)[C@@H](CCC(=O)O)C(=O)OCc2ccccc2)c1, T3P, CH2Cl2, 10.0 mM, 25.0 °C, 3.0 h): 57%
CN1CCC[C@H](NC(=O)OCc2ccccc2)C(=O)N2C[C@@H](NC(=O)OCC[Si](C)(C)C)C[C@H]2COc2cccc(c2)C1=O	–	–	–	–	ring closure, yield of all isomers ([1]; from CN(CCC[C@H](NC(=O)OCc1ccccc1)C(=O)O)C(=O)c1cccc(OC[C@@H]2C[C@H](NC(=O)OCC[Si](C)(C)C)CN2)c1, T3P, i-Pr2NEt, CH2Cl2, 9.4 mM): 54%
CN1C[C@H](NC(=O)OCc2ccccc2)C(=O)N(C)CC(=O)N2C[C@@H](NC(=O)Cc3c[nH]c4ccccc34)C[C@H]2COc2cccc(c2)C1=O [Ex. 200, benzyl N-[(4S,6S,13S)-6-{[2-(1H-indol-3-yl)acetyl]amino}-11,15-dimethyl-9,12,16-trioxo-2-oxa-8,11,15-triazatricyclo[15.3.1.0^4,8]henicosa-1(21),17,19-trien-13-yl]carbamate]	12%	26%	91%	100%	–
CC(=O)N[C@H]1CN(C)C(=O)c2cccc(c2)OC[C@@H]2C[C@H](NC(=O)CN(C)C)CN2C(=O)CN(C)C1=O [Ex. 208, N-[(4S,6S,13S)-13-(acetylamino)-11,15-dimethyl-9,12,16-trioxo-2-oxa-8,11,15-triazatricyclo[15.3.1.0^4,8]henicosa-1(21),17,19-trien-6-yl]-2-(dimethylamino)acetamide]	84%	100%	98%	90%	–
CN(C)CC(=O)N[C@@H]1C[C@H]2COc3cccc(c3)C(=O)N(C)C[C@H](NC(=O)Cc3ccc4ccccc4c3)C(=O)N(C)CC(=O)N2C1 [Ex. 230, 2-(dimethylamino)-N-[(4S,6R,13S)-11,15-dimethyl-13-{[2-(2-naphthyl)acetyl]amino}-9,12,16-trioxo-2-oxa-8,11,15-triazatricyclo[15.3.1.0^4,8]henicosa-1(21),17,19-trien-6-yl]acetamide]	61%	90%	100%	95%	–
CN1CC(=O)N2C[C@H](NC(=O)CCc3ccncc3)C[C@H]2COc2ccc(cc2)C(=O)N(C)[C@H](C(=O)NCc2ccc3ccccc3c2)CCC1=O [Ex. 260, (4S,6R,15S)-11,16-dimethyl-N-(2-naphthylmethyl)-9,12,17-trioxo-6-{[3-(4-pyridinyl)propanoyl]amino}-2-oxa-8,11,16-triazatricyclo[16.2.2.0^4,8]docosa-1(20),18,21-triene-15-carboxamide]	19%	69%	100%	100%	–
CCN(CC)[C@@H]1C[C@H]2COc3ccc(cc3)C(=O)N(C)[C@H](C(=O)NCc3ccc4ccccc4c3)CCC(=O)N(C)CC(=O)N2C1 [Ex. 262, (4S,6R,15S)-6-(diethylamino)-11,16-dimethyl-N-(2-naphthylmethyl)-9,12,17-trioxo-2-oxa-8,11,16-triazatricyclo [16.2.2.0^4,8]docosa-1(20),18,21-triene-15-carboxamide]	0%	4%	100%	93%	–
CN1CC(=O)N2C[C@H](NC(=O)CN3CCCC3)C[C@H]2COc2ccc(cc2)C(=O)N(C)[C@H](C(=O)NCc2ccncc2)CCC1=O [Ex. 266, (4S,6R,15S)-11,16-dimethyl-9,12,17-trioxo-N-(4-pyridinylmethyl)-6-{[2-(1-pyrrolidinyl)acetyl]amino}-2-oxa-8,11,16-triazatricyclo[16.2.2.0^4,8]docosa-1(20),18,21-triene-15-carboxamide]	100%	98%	92%	74%	–
CN1CC(=O)N2C[C@H](NC(=O)CCC(=O)O)C[C@H]2COc2ccc(cc2)C(=O)N(C)[C@H](C(=O)NCc2ccncc2)CCC1=O [Ex. 267, 4-{[(4S,6R,15S)-11,16-dimethyl-9,12,17-trioxo-15-{[(4-pyridinylmethyl)amino]carbonyl}-2-oxa-8,11,16-triazatricyclo [16.2.2.0^4,8]docosa-1(20),18,21-trien-6-yl]amino}-4-oxobutanoic acid]	99%	100%	75%	79%	–
CN1C[C@H](NC(=O)OCc2ccccc2)C(=O)N(C)CC(=O)N2C[C@@H](NC(=O)OC(C)(C)C)C[C@H]2COc2cncc(c2)C1=O [Ex. 272, benzyl N-[(4S,6S,13S)-6-[(tert-butoxycarbonyl)amino]-11,15-dimethyl-9,12,16-trioxo-2-oxa-8,11,15,19-tetraazatricyclo [15.3.1.0^4,8]henicosa-1(21),17,19-trien-13-yl]carbamate]	–	–	95%	92%	ring closure, yield of all isomers ([1]; from CNCC(=O)N1C[C@@H](NC(=O)OC(C)(C)C)C[C@H]1COc1cncc(C(=O)N(C)C[C@H](NC(=O)OCc2ccccc2)C(=O)O)c1, T3P, CH2Cl2, 9.75 mM): 38%
